Measured values from patent US9708310B2, “Phenanthroindolizidine and phenanthroquinolizidine alkaloid having a hydroxyl group on the phenanthrene ring thereof, preparation method and use thereof” (CHINA MEDICAL UNIVERSITY, priority 2015, dated 2017).
Values after ≈ are worked out from the molar mass of the structure shown.

What was measured:
[1] = test system: lung carcinoma (H1299) cells; experiment: Cell viability (MTT) assay, H1299; type: cell-based, human
Method: (§1) 8. Typical Procedure for Cell Viability Assay
(§2) The breast carcinoma (MCF-7), lung carcinoma (H1299), and prostate carcinoma (DU145) cells were first plated at a density of 5×10^3 cells per well in 96-well plates for overnight and then treated with different concentrations of these compounds. After 48 h of treatment, 100 µL of MTT solution was added to each well and the cells were incubated for 1 h at 37° C. Then, the MTT solution was completely removed and […] of DMSO was added to solubilize the MTT formazan crystals. Finally, the absorbance was measured using a MQX200R microplate reader (BioTek, VT, USA) at a wavelength of 550 nm.

[2] = test system: prostate carcinoma (DU145) cells; experiment: Cell viability (MTT) assay, DU145; type: cell-based, human
Method: as §1, §2

[3] = test system: breast carcinoma (MCF-7) cells; experiment: Cell viability (MTT) assay, MCF-7; type: cell-based, human
Method: as §1, §2

[4] = test system: MCF-7, H1299, DU145 cancer cell lines; type: cell-based, human
Method: as §2
The cytotoxic activities of 18 compounds 4a-i and 5a-i were evaluated against three human cancer cell lines, breast carcinoma (MCF-7), lung carcinoma (H1299), and prostate carcinoma (DU145), using tylophorine (4i) and 7-methoxycryptopleurine (5i) for comparison. […] In the phenanthroindolizidine series, the IC50 ratio of compounds 4a-h to tylophorine (4i) followed the order: 4a˜4h˜4e>4f>>4b˜[…]>4d>4g; however, in the phenanthroquinolizidine series, the IC50 ratio of compounds 5a-h to 7-methoxycryptopleurine (5i) followed the order: 5c˜5a˜5h˜5b>>5f˜5d>5e>5g. […] Based on the SAR results, a more polar phenanthroquinolizidine, 7-hydroxycryptopleurine (20), was designed and synthesized to decrease the CNS toxicity and increase the water solubility. […]

[5] = predicted by PreADMET; cited from earlier work
[6] = Solubility in the dosing solvent system; details: 2.5% DMSO, 2.5% EtOH, 5% Cremophor EL, and 90% normal saline
[7] = cited from earlier work
rats = details: high doses; cited from earlier work
physchem = details: aqueous with cosolvent or surfactant or cyclodextrin
[8] = test system: normal human lung fibroblast cell line, MRC-5; experiment: Cytotoxicity against normal lung fibroblasts MRC-5; type: cell-based; details: MRC5
[9] = test system: cyclin D1, CDK4, cyclin E, CDK2, cyclin B1, and CDK1; experiment: Western blot of H1299 cell cycle associated protein; type: cell-based, human; details: H1299 cells, 7, 14, and 21 nM, 12, 24, and 48 h
Method: 9. The Effect of Compound 20 on H1299 Cell Cycle Associated Protein
9.1 Western Blot Analysis
H1299 cells were first seeded at a density of 3×10^5 cells per well in six-well plates overnight and then treated with compound 20 at three different concentrations (7, 14, and 21 nM) for 12, 24, and 48 h. The cells were washed with PBS buffer and lysed in ice-cold RIPA buffer for 30 min. The supernatant was collected and centrifuged at 15,000 rpm at 4° C. for 30 min. The protein concentration was measured with a Bio-Rad assay using a MQX200R microplate reader (BioTek, VT, USA). The cell lysates were separated by 10% SDS-PAGE and electrophoretically transferred onto polyvinylidene difluoride (PVDF) membranes (Millipore, Bedford, Mass.). After several washes, the membranes were blocked with 5% skim milk in TBST (tris-buffered saline containing 0.1% Tween-20) at room temperature for 1 h and incubated with different primary antibodies against cyclin D1, CDK4, cyclin E, CDK2, cyclin B1, and CDK1 (1:2000 dilution) at 4° C. for overnight. […] After washing three times in TBST, the bound antibody was visualized using ECL Western Blotting Reagent (PerkinElmer, Boston), and chemiluminescence was detected using a Fuji Medical X-ray film (Tokyo, Japan).
All the data were expressed as means±SEM for three replicate experiments. […]

female athymic nude mice = experiment: Rotarod test for motor coordination (neurotoxicity); type: in vivo; details: i.p., 20 at 10 mg/kg vs 5i at 0.08 mg/kg, 15 administrations, 5 rpm, three consecutive days
From the text: 10. Rotarod Test for Motor Coordination
The protocol of rotarod test was based on those described in the literature [Y. Z. Lee, C. W Yang, H. Y. Hsu, Y. Q. Qiu, T. K. Yeh, H. Y. Chang, et al., J. Med. Chem. 2012, 55, 10363-10377] with slight modifications. Eight week-old female athymic nude mice were used. All the animal experiments followed ethical standards, and the protocols have been reviewed and approved by the Animal Care and Use Committee of China Medical University (IACUC approval no: 102-235-N). The mice were randomly divided into two groups (n=3) and treated with compound 20 (10 mg/kg) or 7-methoxycryptopleurine 5i (0.08 mg/kg) intraperitoneally. The compounds were dissolved in a mixture of 2.5% DMSO, 2.5% EtOH, 5% Cremophor EL, and 90% normal saline. Each group was administered once daily, five days per week for 15 times in total. After 15 administrations of the compounds, the mice were placed on the rotarod apparatus for training (day 1) and test (days 2-4) with the rod set in motion at a constant speed of 5 rpm. The latency time to fall from the rotating rod was recorded for a maximum of 180 s.

[10] = early clinical trial; cited from earlier work
[11] = Homo sapiens, NCI-H1299, 48 h treatment
[12] = Homo sapiens, DU-145, 48 h treatment
[13] = Homo sapiens, MCF7, 48 h treatment

| Compound | melting point | IC50 [1, 11] | IC50 [2, 12] | IC50 [3, 13] | IC50 ([1]; 48 h treatment) | IC50 ([2]; 48 h treatment) | IC50 ([3]; 48 h treatment) | also measured |
| --- | --- | --- | --- | --- | --- | --- | --- | --- |
| COc1cc2c3c(c4cc(OC)c(OC)c(OC)c4c2cc1OC)CN1CCCCC1C3 (centres unmarked) [Compound 5e, 2,3,5,6,7-Pentamethoxy-10,11,12,13,13a,14-hexahydro-9H-9a-azabenzo[b]triphenylene] | 166 to 167 °C | 27.6 nM | 23.8 nM | 19.3 nM |  |  |  |  |
| COc1cc2c3c(c4c(OC)c(OC)c(OC)cc4c2cc1OC)CC1CCCN1C3 (centres unmarked) [Compound 4a, 1,2,3,6,7-Pentamethoxy-11,12,12a,13-tetrahydro-10H-9a-azacyclopenta[b]triphenylene] | 225 to 226 °C | > 2500 nM | > 2500 nM | > 2500 nM |  |  |  |  |
| COc1ccc2c3c(c4cc(OC)c(OC)cc4c2c1)CN1CCC[C@H]1C3 [Compound 4b, Deoxypergularinine] |  |  |  |  | 235 nM | 176 nM | 305 nM |  |
| COc1ccc2c(c1)c1c(c3cc(OC)c(OC)cc32)CC2CCCCN2C1 (centres unmarked) [Compound 5f, 2,3,7-Trimethoxy-10,11,12,13,13a,14-hexahydro-9H-9a-azabenzo[b]triphenylene] | 156 to 158 °C | 57.3 nM | 41.8 nM | 68.7 nM |  |  |  | fold increase in the cytotoxicity relative to compound 4f [4]: 28-36 fold |
| COc1ccc2c3c(c4cc(OC)c(OC)cc4c2c1)C[C@H]1C[C@H](O)CCN1C3 [Compound 3] |  |  |  |  |  |  |  | BBB penetration [5]: significantly reduced the BBB penetration |
| COc1ccc2c(c1)c1c(c3cc(OC)c(OC)cc32)CN2CCCCC2C1 (centres unmarked) [Compound 5c, 2,6,7-Trimethoxy-10,11,12,13,13a,14-hexahydro-9H-9a-azabenzo[b]triphenylene] | 182 to 184 °C | 314 nM | 279 nM | 392 nM |  |  |  |  |
| COc1cc2c3c(c4c(OC)c(OC)c(OC)cc4c2cc1OC)CN1CCCCC1C3 (centres unmarked) [Compound 5h, 2,3,6,7,8-Pentamethoxy-10,11,12,13,13a,14-hexahydro-9H-9a-azabenzo[b]triphenylene] | 211 °C (dec.) | 232 nM | 215 nM | 277 nM |  |  |  |  |
| COc1cc2c3c(c4c(OC)c(OC)c(OC)cc4c2cc1OC)CN1CCCC1C3 (centres unmarked) [Compound 4h, 2,3,6,7,8-Pentamethoxy-11,12,12a,13-tetrahydro-10H-9a-azacyclopenta[b]triphenylene] | 231 °C (dec.) | > 2500 nM | > 2500 nM | > 2500 nM |  |  |  |  |
| COc1ccc2c(c1)c1c(c3cc(OC)c(OC)cc32)CN2CCCC2C1 (centres unmarked) [Compound 4c, 2,6,7-Trimethoxy-11,12,12a,13-tetrahydro-10H-9a-azacyclopenta[b]triphenylene] | 187 to 189 °C | > 2500 nM | 2150 nM | 2480 nM |  |  |  |  |
| COc1cc2c3c(c4cc(OC)c(OC)c(OC)c4c2cc1OC)CC1CCCN1C3 (centres unmarked) [Compound 4d, 4-Methoxytylophorine] |  |  |  |  | 54.1 nM | 58.8 nM | 61.2 nM |  |
| COc1cc2c3c(c4cc(OC)c(OC)cc4c2cc1OC)CN1CCCCC1C3 (centres unmarked) [Compound 5i, 7-Methoxycryptopleurine] |  |  |  |  | 7.1 nM | 4.5 nM | 10.7 nM | solubility in the solvent system [6]: less than 0.08 mg/mL |
| COc1ccc2c3c(c4cc(OC)c(OC)cc4c2c1)C[C@H]1CCCCN1C3 [Compound 5g, Cryptopleurine] |  |  |  |  | 9 nM | 4.6 nM | 11.3 nM |  |
| COc1cc2c3c(c4cc(OC)c(OC)cc4c2cc1OC)CN1CCC[C@@H]1C3 [Compound 1, (R)-tylophorine] |  |  |  |  |  |  |  | water solubility [7]: low; CNS side effects (rats): caused central nervous system (CNS) side effects |
| Desmethoxytylophorine [Compound 4f] |  |  |  |  | 2020 nM | 1510 nM | 1910 nM |  |
| COc1cc2c3c(c4cc(OC)c(OC)cc4c2cc1OC)CN1CCC[C@@H]1C3 [Compound 4i, Tylophorine] |  |  |  |  | 30.9 nM | 28.3 nM | 41.1 nM |  |
| COc1cc2c(cc1O)c1c(c3cc(OC)c(OC)cc32)CC2CCCCN2C1 (centres unmarked) [Compound 20, 7-Hydroxy-2,3,6-trimethoxy-10,11,12,13,13a,14-hexahydro-9H-9a-azabenzo[b]triphenylene] | 114 to 115 °C | 5.2 nM | 4.4 nM | 6.4 nM |  |  |  | solubility (physchem): ~1300 µg/mL (≈ 3.3 mM); IC50 [8]: 26 nM; cell cycle associated protein expression [9]: decrease in cyclin D1-cdk4, cyclin E-cdk2, and cyclin B1-cdk1 expression; motor coordination (neurotoxicity), rotarod (female athymic nude mice): better motor coordination than the compound 5i-treated group |
| COc1ccc2c3c(c4cc(OC)c(OC)cc4c2c1)CN1CCCCC1C3 (centres unmarked) [Compound 5b, Boehmeriasin A] |  |  |  |  | 211 nM | 184 nM | 272 nM |  |
| COc1cc2c3c(c4cc(OC)c(OC)c(OC)c4c2cc1OC)CN1CCCC1C3 (centres unmarked) [Compound 4e, 2,3,5,6,7-Pentamethoxy-11,12,12a,13-tetrahydro-10H-9a-azacyclopenta[b]triphenylene] | 169 to 170 °C | 165 nM | 150 nM | 224 nM |  |  |  |  |
| COc1ccc2c3c(c4cc(OC)c(OC)cc4c2c1)C[C@H]1CCCN1C3 [Compound 4g, Antofine] |  |  |  |  | 32.5 nM | 30.3 nM | 42.4 nM |  |
| COc1cc2c3c(c4c(OC)c(OC)c(OC)cc4c2cc1OC)CC1CCCCN1C3 (centres unmarked) [Compound 5a, 1,2,3,6,7-Pentamethoxy-10,11,12,13,13a,14-hexahydro-9H-9a-azabenzo[b]triphenylene] | 191 to 192 °C | 252 nM | 272 nM | 276 nM |  |  |  |  |
| COc1cc2c3c(c4cc(OC)c(OC)c(OC)c4c2cc1OC)CC1CCCCN1C3 (centres unmarked) [Compound 5d, 4,7-Dimethoxycryptoplerine] |  |  |  |  | 54.4 nM | 35.7 nM | 61.9 nM |  |
| COc1cc2c3c(c4ccc(OC)c(OC)c4c2cc1OC)CN1CCC[C@@H]1C3 [Compound 2, (R)-tylocrebrine] |  |  |  |  |  |  |  | clinical trial outcome [10]: failed in the early clinical trial owing to CNS toxicity |
